We go through three compounds from patent US12600732B2, “Bifunctional compounds for degrading BTK via ubiquitin proteosome pathway” (NURIX THERAPEUTICS, INC., priority 2019, dated 2026).

The test system of test [1] is 1:1 TMD8 WT:TMD8 C481S. Put plainly: Mouse xenograft efficacy study, 1:1 TMD8 WT:TMD8 C481S model. It counts as in vivo. The conditions noted are these: PO, 30 mg/kg, BID, 21 days of dosing. An excerpt: (§1) Efficacy in Mouse Xenograft Models
(§2) This example examines the activity of various BTK CTMs in relevant disease models, including the WT and C481S TMD8 model, which models B cell malignancies with/without inhibitor-driven BTK mutations at C481.

Test [2] deals with T1, BTK (Homo sapiens, UniProt Q06187). Kind of test: BTK remaining in TMD8 WT mouse xenograft study. The class given is in vivo. The arrangement: from tissue; host or cells: TMD8 xenograft in CB.17 SCID mice.
From the text: as §1, §2

For test [3], the target named is T1, BTK. Kind of test: BTK degradation in human PBMCs (BTK flow cytometry), primary human B cells. The class given is cell-based. Set-up: endogenous in cells; host or cells: human PBMC (B cells) from healthy donors. As for the experimental part:
Human peripheral blood mononuclear cells (PBMC) were obtained either: 1) by using Ficoll-Paque™ (GE Healthcare) for separation of peripheral blood hematopoietic cells from buffy coats of healthy human donors; or 2) directly from LeukoPak donations. PBMCs were grown at 37° C. and 5% CO2 in RPMI supplemented with 10% heat-inactivated FBS (Corning Premium Fetal Bovine Serum from Fisher, MT35015CV), 1× Penicillin/Streptomycin, and 2 mM Glutamine.
BTK Degradation in Human PBMCs (BTK Flow Cytometry)
This example evaluates the potency of CTMs in primary human B cells, rather than transformed or immortalized cancer cell lines. Primary cells are believed to be a physiologically relevant model. Thus, this example confirms the potency, kinetics, and level of BTK degradation in these cells in addition to the cell line models. Furthermore, this assay establishes that it is possible to monitor BTK degradation in primary human B cells, which can serve as a clinical biomarker.
In general terms: In flow cytometry, cells or beads pass a laser one at a time.

In test [4] the target is BTK C481S (Homo sapiens, UniProt Q06187, C481S). Kind of test: BTK remaining in TMD8 C481S mouse xenograft study. The class given is in vivo. The arrangement: from tissue; host or cells: TMD8 BTK-C481S xenograft in CB.17 SCID mice. The conditions noted are these: PO, 23 days of dosing.
From the text: as §1, §2

Test [5] deals with TMD8 tumor cells. Kind of test: TMD8 xenograft efficacy study (wild-type BTK). The conditions noted are these: TMD8 WT. The class given is in vivo, mouse. As for the experimental part:
[…] Tumor growth inhibition (% TGI) were calculated on the final day of measurement using the equation [1−(T−T0/C−T0)]×100, where T and C represent the mean size of tumors in the treated (T) and control (C) groups, and T0 refers to the tumor size at randomization.
as §2

Test [6] deals with T2, BTK (Canis lupus familiaris, UniProt A0A8I3P3Z9).
T2 construct: from tissue
Kind of test: PD data from dog (BTK degradation). The conditions noted are these: blood. It counts as in vivo. An excerpt:
(§3) In this example, compounds were profiled for activity in non-mouse species.

The target of test [7] is T3, BTK (Rattus norvegicus, UniProt Q5S255).
T3 construct: from tissue
Kind of test: PD data from rat (BTK degradation). The conditions noted are these: blood. It counts as in vivo.
From the text: as §3

[8] abbreviates: PO (water bottle), 15 mg/kg, QD (water bottle), 21 days of dosing.
Setting [9] is: PO (water bottle), 35 mg/kg, QD (water bottle), 23 days of dosing.

Values joined by “and” are separate entries in the source; they are usually repeats but may differ in a detail not shown here. Equal values may be shown once. Bounds are passed on as bounds.

Turning to `CN1CCN([C@@H]2CCCN(c3cnc(C(N)=O)c(Nc4ccc(C5CCN(C[C@H]6CCN(c7ccc8c(c7)C(=O)N(C7CCC(=O)NC7=O)C8=O)C6)CC5)cc4)n3)C2)C1=O` (stereo partly drawn) [Compound 44], the “Tumor Growth Inhibition (relative to vehicle)” value in test [1] amounted to 54%; in test [5] (setting [8]), 29%; in test [5] (setting [9]) it was 89%; in test [5] (PO, 7.5 mg/kg, BID, 21 days of dosing), 100%; in test [5] (PO, 15 mg/kg, BID, 21 days of dosing), 100%; in test [5] (PO, 30 mg/kg, BID, 23 days of dosing), 99%. Moreover, the “Tumor Growth Inhibition (relative to vehicle)” value in test [5] (PO, 30 mg/kg, QD, 23 days of dosing) is 83%; in test [5] (PO, 90 mg/kg, BID, 23 days of dosing), 100%; in test [5] (PO, 90 mg/kg, QD, 23 days of dosing), 93%. For the same compound, the “BTK Remaining (% relative to vehicle)” value was 7% in test [2] (setting [8]); 18% in test [2] (setting [9]); 32% and 20% in test [2] (PO, 30 mg/kg, QD, 21 days of dosing); 44% in test [4] (5 mg/kg, BID); 38% in test [4] (10 mg/kg, QD); 25% in test [4] (15 mg/kg, BID). For the same compound, the “BTK Remaining (% relative to vehicle)” value is 39% and 35% in test [4] (30 mg/kg, BID); 51% and 42% in test [4] (30 mg/kg, QD); 36% in test [4] (60 mg/kg, QD). The DC50 in test [3] (treatment time 1 h) is 6 nM; in test [3] (treatment time 2 h), 3 nM; in test [3] (treatment time 4 h), 0.51 nM. For the same compound, the “% BTK Remaining” value came out at 88% in test [6] (10 mg/kg PO, 2 h); 56% in test [6] (10 mg/kg PO, 4 h); 35% in test [6] (10 mg/kg PO, 8 h); 19% in test [6] (10 mg/kg PO, 24 h); 87% in test [6] (30 mg/kg PO, 2 h); 58% in test [6] (30 mg/kg PO, 4 h). The “% BTK Remaining” value in test [6] (30 mg/kg PO, 8 h) is given as 28%; in test [6] (30 mg/kg PO, 24 h), 14%.
For the compound `CN1CCN([C@H]2CCCN(c3cnc(C(N)=O)c(Nc4ccc(C5CCN(CC6CCN(c7ccc(C(=O)NC8CCC(=O)NC8=O)nc7)CC6)CC5)cc4)n3)C2)C1=O` (stereo partly drawn) [Compound 130], the DC50 in test [3] (treatment time 4 h) is 0.13 nM. Further, the “% BTK Remaining” value is under 1% in test [7] (1 mg/kg IV, 4 h); under 1% in test [7] (1 mg/kg IV, 24 h); under 1% in test [7] (10 mg/kg PO, 4 h); under 1% in test [7] (10 mg/kg PO, 24 h); under 1% in test [7] (30 mg/kg PO, 4 h); under 1% in test [7] (30 mg/kg PO, 24 h).
In test [3] (treatment time 4 h), `NC(=O)c1ncc(N2CCCCC2)nc1Nc1ccc(C2CCN(C[C@@H]3CCN(c4ccc5c(c4)C(=O)N(C4CCC(=O)NC4=O)C5=O)C3)CC2)cc1` (stereo partly drawn) [Compound 149] displayed a DC50 of 1.9 nM. In addition, the “% BTK Remaining” value in test [6] (1 mg/kg IV, 2 h) worked out at 43%; in test [6] (1 mg/kg IV, 4 h), 22%; in test [6] (1 mg/kg IV, 8 h), 10%; in test [6] (1 mg/kg IV, 24 h), 11%; in test [6] (10 mg/kg PO, 2 h) it was 61%; in test [6] (10 mg/kg PO, 4 h) it was 47%. The “% BTK Remaining” value in test [6] (10 mg/kg PO, 8 h) is recorded as 29%; in test [6] (10 mg/kg PO, 24 h), 17%.

Broadly, the DC50 is the concentration at which degradation of the target reaches its halfway point. A high value points to a less potent degrader.
